Measurements: paper PMC6637691, “Phenothiazinium Dyes Are Active against Trypanosoma cruzi In Vitro” (BioMed Research International, 2019)

How the values were obtained:
T. cruzi trypomastigotes [1] = experiment: Mitochondrial membrane potential (JC-1, flow cytometry) in trypomastigotes; assay type: cell-based, Trypanosoma cruzi; conditions: 4 × IC50, 2 h
Protocol: (§1) LLCMK2 cells in 75 cm^2 flasks were cultivated to confluence and were infected with 1 × 10^7 T. cruzi trypomastigotes. […] The infected cells were centrifuged for 10 min, 3000 g, and washed with PBS and suspended in trypsin to separate cells and parasites. The cultures were distributed in 1.5 ml microtubes (~ 1 × 10^6 trypomastigotes/tube) and incubated with 4 × IC50 of compounds at 37°C, 5% CO2 for 2 h. Menadione (MN), a classic inducer of cellular oxidative stress, was used as the positive control of ROS production as previously described in [14]. After treatment, the cultures were centrifuged for 10 minutes, 3000 g, and washed with PBS and suspended in trypsin. […] Similarly, the mitochondrial membrane potential was determined after incubation with 5 μM JC-1 under the same conditions. […] In polarized mitochondria, the dye forms J-aggregates, emitting red fluorescence. The cultures were washed with PBS and analyzed in a BD FACS-Canto (BD Biosciences) flow cytometer with the FACSDiva (BD) 6.1.3 software. Due to the size, host cells (infected and noninfected) and trypomastigotes were separately analyzed by flow cytometry. The median of fluorescence of oxidized DCF and the populations with active mitochondria were measured with excitation/emission at 488 nm/529 nm and […]. […]

T. cruzi trypomastigotes [2] = experiment: ROS measurement (DCFDA, flow cytometry) in trypomastigotes; assay type: cell-based, Trypanosoma cruzi; conditions: 4 × IC50, 2 h
Protocol: as §1

LLCMK2 cells = experiment: Cytotoxicity (MTT assay); assay type: cell-based; conditions: CC50 LLCMK2 / IC50 amastigotes
Protocol: (§2) The cytotoxic effects of the phenothiazinium dyes in LLCMK2 cells was measured by Thiazolyl Blue Tetrazolium Bromide (MTT) assay, as described in [12]. A suspension of LLCMK2 cells (5 × 10^4/ml) in RPMI supplemented with 10% FBS was distributed in 96-well plates and cultivated (37°C, 5% CO2) to the confluence. […] The cultures were incubated for 72 h, 37°C, and 5% CO2. For the measurement of the […], the media were carefully removed and an MTT solution (500 μg/ml MTT in PBS) was added. The reaction was performed for 4 h at 37°C, 5% CO2. After the reaction, the MTT solution was discarded and the formazan crystals solubilized with DMSO. The absorbance was measured in an ELISA reader (Synergy™ H1, Biotek) at 570 nm. The percentages of proliferation and cytotoxicity were calculated using the mean absorbance of the compound-free control and the absorbance of each treatment. The IC50 and the combination index (CI) were achieved using Compusyn software (http://www.combosyn.com/) and the selective index (CC50/IC50) was also determined. […] For oxidative stress and mitochondrial activity, data were analyzed by one-way ANOVA followed by a Dunnett's post hoc test (compared to nontreated groups) on GraphPad 5.0 software.

Cytotoxicity (MTT assay) = assay type: cell-based; conditions: rhesus monkey; LLCMK2 cells, 72 h, MTT assay
Protocol: as §2

T. cruzi amastigotes [3] = experiment: Drug combination assay against amastigotes (CPRG, Compusyn); assay type: cell-based; conditions: Trypanosoma cruzi
Protocol: (§3) LLCMK2 cells were distributed in 96-well plates (5×10^4 cells/ml) and infected with T. cruzi-LacZ at a multiplicity of infection (MOI) of 10:1 (5×10^5 cells/ml). The cultures were incubated for 48 h, 37°C, and 5% CO2 and washed with phosphate buffered saline (PBS). Serial dilutions of compounds (starting from 10 μM) in RPMI were added to the cultures in duplicate and incubated for 72 h, 37°C,and 5% CO2. […] After incubation, the media were removed and followed by the reaction with chlorophenol red-β-D-galactopyranoside (CPRG) buffer (200 μM CPRG, 2% Trion X-100, and 50 mM MgCl2 in PBS) for 4 h, 37°C. The plates were read at 570 nm in ELISA reader (Synergy™ H1, Biotek). Three independent assays were performed.
(§4) The percentages of proliferation and cytotoxicity were calculated using the mean absorbance of the compound-free control and the absorbance of each treatment. The IC50 and the combination index (CI) were achieved using Compusyn software (http://www.combosyn.com/) and the selective index (CC50/IC50) was also determined. From CI values, synergistic (CI < 1), and antagonistic (CI > 1) interactions were identified. For oxidative stress and mitochondrial activity, data were analyzed by one-way ANOVA followed by a Dunnett's post hoc test (compared to nontreated groups) on GraphPad 5.0 software.
As references, isolated compounds of each combination were evaluated concomitantly in the same plate. The inhibition percentage was calculated in comparison to the nontreated group and the IC50 and CI values were achieved using Compusyn software.

T. cruzi amastigotes [4] = experiment: Amastigote growth inhibition assay (T. cruzi-LacZ, CPRG readout); assay type: cell-based; conditions: Trypanosoma cruzi, LLC-MK2, amastigotes in LLCMK2 cells, 72 h, 37°C, three independent assays
Protocol: T. cruzi (Tulahuen strain) was maintained in cultures of LLCMK2 cells and cultivated in RMPI supplemented with 10% fetal bovine serum (FBS) at 37°C, 5% CO2. The parasites used in proliferation and flow cytometry assays were genetically modified to express the enzyme β-galactosidase (T. cruzi-LacZ [9]). To illustrate the inhibition of parasite proliferation, a T. cruzi expressing GFP (G-GFP strain [10]) was used.
as §3, §4

noninfected LLCMK2 cells = experiment: ROS measurement (DCFDA, flow cytometry) in noninfected cells; assay type: cell-based; conditions: 4 × IC50, 2 h
Protocol: as §1

[5] = 72 h, read-out: IC50 (compound 1), compound 1 alone, evaluated in the same plate as the combination
[6] = 72 h, compound 2 alone, evaluated in the same plate as the combination, read-out: IC50 (compound 2)

Structure (SMILES)	Mitochondrial membrane potential in trypomastigotes (T. cruzi trypomastigotes [1])	ROS production in trypomastigotes (T. cruzi trypomastigotes [2])	SI (selectivity index, CC50/IC50) (LLCMK2 cells)	CC50 at 72 h (Cytotoxicity (MTT assay))	IC50 (T. cruzi amastigotes [3]; [5])	IC50 (T. cruzi amastigotes [4])	ROS production in noninfected cells (noninfected LLCMK2 cells)	IC50 (T. cruzi amastigotes [3]; 72 h, read-out: IC50 (compound 2), compound 2 alone, evaluated in the same plate as the combination)	IC50 (T. cruzi amastigotes [3]; read-out: IC50 (compound 2), compound 2 alone, evaluated in the same plate as the combination)	IC50 (T. cruzi amastigotes [3]; 72 h, compound 1 alone, evaluated in the same plate as the combination, read-out: IC50 (compound 1))	IC50 (T. cruzi amastigotes [3]; [6])
O=C(Cn1ccnc1[N+](=O)[O-])NCc1ccccc1 [BZ, Benznidazole]	did not affect mitochondria	no ROS production was detected	> 58.65	> 200000 nM	3320 nM	3410 ± 380 nM	increased ROS production	–	–	–	–
Cc1cc2nc3ccc(N(C)C)cc3[s+]c2cc1N [TBO, Toluidine Blue O]	–	–	28.61	7930 ± 5220 nM	381 nM	270 ± 110 nM	–	322 nM	322 nM	–	–
CC1=CC(=O)c2ccccc2C1=O [MN, Menadione]	reduced the membrane potential	increased ROS production	–	–	–	–	increased ROS production	–	–	–	–
CN(C)c1ccc2nc3ccc(=[N+](C)C)cc-3sc2c1 [MB, Methylene Blue]	–	–	37.40	16800 ± 1180 nM	–	440 ± 150 nM	–	–	–	560 nM	477 nM
Cc1cc(N(C)C)cc2[s+]c3cc(N(C)C)cc(C)c3nc12 [DMMB, 1,9–Dimethyl Methylene Blue]	–	–	51.26	4460 ± 230 nM	–	80 ± 20 nM	–	–	–	–	71 nM
CCNc1cc2[s+]c3cc(NCC)c(C)cc3nc2cc1C [NMB, New Methylene Blue]	–	–	44.71	4190 ± 1300 nM	122 nM	90 ± 10 nM	–	–	–	–	100 nM
